# Earlier results as cited in US8278351B2, “Natural marine source phospholipids comprising polyunsaturated fatty acids and their applications” (priority 2001, dated 2012).
# Tests used:
# memory impairment = settings: 300 mg. daily, three months
# Alzheimer's Disease [1] = settings: 300 mg. per day for six weeks, 35 patients
# cognitive decline = settings: 300 mg. per day for six months, versus placebo
# panic disorder = settings: four weeks
# Alzheimer's Disease [2] = system: Alzheimer's Disease
# [3] = system: Obsessive Compulsive Disorder; settings: week six, compared to placebo period
# depression = settings: 12 grams daily; placebo 0.6+/−10
# [4] = high-dose inositol
# [5] = system: mitochondrial membrane potentials; settings: experimental group, peripheral blood
# mitochondrial DNA = settings: treated group versus control; brain and cochlea
# cancer cells = settings: in vitro
# [6] = system: breast, ovarian, and lung cancer cells, mesothelioma cells
compound,measurement,setting,value
Phosphatidylserine [PS],mental gain,memory impairment,12 years
same,improvement in Alzheimer's patients,Alzheimer's Disease [1],significant improvement
same,memory and learning,cognitive decline,significantly improved
O[C@H]1[C@H](O)[C@@H](O)[C@H](O)[C@@H](O)[C@H]1O [inositol],frequency and severity of panic attacks and severity of agoraphobia,panic disorder; versus placebo,declined significantly more after inositol than after placebo
same,panic attacks after treatment,"panic disorder; decrease from 10 attacks per week, placebo 10 to 6",3 per week
same,CAMCOG subscales language and orientation,Alzheimer's Disease [2]; only two of the eight subscales,significant improvement
same,total CAMCOG score after inositol,"Alzheimer's Disease [2]; six grams inositol daily, four weeks",40.09+/−24.54
same,"total CAMCOG score, baseline","Alzheimer's Disease [2]; six grams inositol daily, baseline",31.36+/−20.90
same,improvement in OCD,[3],significant improvement
same,improvement in depression as ranked by the Hamilton Depression Rating Scale,depression,33.4+/−6
same,increase of CSF levels of inositol,[4],≤ 70%
Polyunsaturated phosphatidylcholine,"mean fluorescence intensity (MFI), beginning of the study",[5]; beginning of the study,3165
same,"mean fluorescence intensity (MFI), end of the study",[5]; end of the study (six months),2990
same,mitochondrial DNA damage,mitochondrial DNA,less mitochondrial DNA damage
same,"preservation of hearing at all frequencies (3, 6, 9, 12 and 18 kHz)","age-related hearing loss; 300 mg/kg/day oral diet, four and six months of treatment",statistically significant preservation of hearing
same,overall effect on decline in hearing,"age-related hearing loss; 300 mg/kg/day, p<0.005 versus control",statistically significant protective effect
Phosphatidylcholine,dosage tolerated by normal cells relative to leukemic cells,HL60 leukemic cells; 24 hours incubation,4 times
same,inhibition of HL60 leukemic cells,HL60 leukemic cells; versus normal human marrow cells,inhibit HL60 leukemic cells at a dosage that has no effect on normal human marrow cells
same,cytotoxicity to cancer cells,cancer cells,selectively cytotoxic
same,difference in sensitivity between normal and tumor cells,[6],≤ 5 fold
